IC50 data for 36 molecules are collected here from ChEMBL document CHEMBL5726876, “NHE3-binding compounds and methods for inhibiting phosphate transport” (2019).

Molecules are shown by their SMILES. Where only a bound is given, the exact number is not on record here.

This test can be described thus: Cell-based activity under Prompt Conditions: Cell-based activity under Prompt Conditions. Rat or human NHE3-mediated Na+-dependent H+ antiport was measured using a modification of the pH sensitive dye method originally reported by Paradiso (PNAS USA. 81:7436-7440, 1984). Opossum kidney (OK) cells were obtained from the ATCC and propagated per their instructions. The rat NHE3 gene (GenBank M85300) or the human NHE3 gene (GenBank NM_004174.1) was introduced into OK cells via electroporation, and cells were seeded into 96 well plates and grown overnight. Medium was aspirated from the wells, cells were washed twice with NaCl-HEPES buffer (100 mM NaCl, 50 mM HEPES, 10 mM glucose, 5 mM KCl, 2 mM CaCl2, 1 mM MgCl2, pH 7.4), then incubated for 30 min at room temperature with NH4Cl-HEPES buffer (20 mM NH4Cl, 80 mM NaCl, 50 mM HEPES, 5 mM KCl, 2 mM CaCl2, 1 mM MgCl2, pH 7.4) containing 5 μM bis(acetoxymethyl) 3,3′-(3′,6′-bis(acetoxymethoxy)-5-((acetoxymethoxy)carbonyl)-3-oxo-3H-spiro[isobenzofuran-1,9′-xanthene]-2′,7′-diyl)dipropanoate (BCECF-AM).Cells were washed twice with Ammonium free, Na+-free HEPES (100 mM choline, 50 mM HEPES, 10 mM glucose, 5 mM KCl, 2 mM CaCl2, 1 mM MgCl2, pH 7.4) and incubated in the same buffer for 10 minutes at room temperature to lower intracellular pH. […] Initial rates were plotted as the average 2 or more replicates, and pIC50 values were estimated using GraphPad Prism.
Turning to `CN(C)[C@H]1Cc2c(Cl)cc(Cl)cc2[C@@H]1Oc1ccc(S(=O)(=O)NCCOCCOCCNC(=O)Nc2ccc(NC(=O)NCCOCCOCCNS(=O)(=O)c3ccc(O[C@H]4c5cc(Cl)cc(Cl)c5C[C@@H]4N(C)C)cc3)cc2)cc1`, the IC50 is < 10000 nM.
In the case of `CN1Cc2c(Cl)cc(Cl)cc2[C@H](c2cccc(S(=O)(=O)NCCOCCOCCNC(=O)CCC(CCC(=O)NCCOCCOCCNS(=O)(=O)c3cccc([C@@H]4CN(C)Cc5c(Cl)cc(Cl)cc54)c3)(CCC(=O)NCCOCCOCCNS(=O)(=O)c3cccc([C@@H]4CN(C)Cc5c(Cl)cc(Cl)cc54)c3)NC(=O)NC(CO)(CO)CO)c2)C1` it was < 10000 nM; in that of `CN1Cc2c(Cl)cc(Cl)cc2C(c2cccc(S(N)(=O)=O)c2)C1` (stereo unspecified), 251 nM; in that of `CN1Cc2c(Cl)cc(Cl)cc2[C@H](c2cccc(S(=O)(=O)NCCOCCOCCNC(=O)CN(CCOCCOCCOCCNC(=O)c3ccc(-c4ccc(Cl)cc4)cc3)CC(=O)NCCOCCOCCNS(=O)(=O)c3cccc([C@@H]4CN(C)Cc5c(Cl)cc(Cl)cc54)c3)c2)C1`, 1260 nM.
In the case of `CN(CCN(CC(=O)O)CC(=O)NCCOCCOCCNC(=O)NCCOCCOCCOCCOc1ccc(-c2nc(NC(=N)N)nc3ccc(Cl)cc23)cc1)CC(=O)O` it was 10 nM; in that of `CCCCCCCCNC(=O)N(CCNC(=O)NCCOCCOCCNS(=O)(=O)c1cccc([C@@H]2CN(C)Cc3c(Cl)cc(Cl)cc32)c1)CCNC(=O)NCCOCCOCCNS(=O)(=O)c1cccc([C@@H]2CN(C)Cc3c(Cl)cc(Cl)cc32)c1`, 1580 nM.
Then `CN1Cc2c(Cl)cc(Cl)cc2[C@H](c2cccc(S(=O)(=O)NCCOCCOCCOCCNC(=O)CN3CCN(CC(=O)NCCOCCOCCOCCNS(=O)(=O)c4cccc([C@@H]5CN(C)Cc6c(Cl)cc(Cl)cc65)c4)CCN(CC(=O)NCCOCCOCCOCCNS(=O)(=O)c4cccc([C@@H]5CN(C)Cc6c(Cl)cc(Cl)cc65)c4)CCN(CC(=O)NCCOCCOCCOCCNS(=O)(=O)c4cccc([C@@H]5CN(C)Cc6c(Cl)cc(Cl)cc65)c4)CC3)c2)C1`, with 501 nM; and `CN1Cc2c(Cl)cc(Cl)cc2[C@H](c2cccc(S(=O)(=O)NCCOCCOCCNC(=O)NCCCC(CCCNC(=O)NCCOCCOCCNS(=O)(=O)c3cccc([C@@H]4CN(C)Cc5c(Cl)cc(Cl)cc54)c3)(CCCNC(=O)NCCOCCOCCNS(=O)(=O)c3cccc([C@@H]4CN(C)Cc5c(Cl)cc(Cl)cc54)c3)NC(=O)CCC(=O)O)c2)C1`, with 20 nM.
On to `CCCOCNC(=O)NCCCCNC(=O)NCCOCCOCCNC(=O)NCCOCCOCCN1CCN(c2cccc(-c3nc(N=C(N)N)nc4ccc(Cl)cc34)c2)CC1`, for which the IC50 was 25.1 nM.
In the case of `CN1Cc2c(Cl)cc(Cl)cc2[C@H](c2cccc(S(=O)(=O)NCCOCCOCCOCCNC(=O)CCC(CCC(=O)NCCOCCOCCOCCNS(=O)(=O)c3cccc([C@@H]4CN(C)Cc5c(Cl)cc(Cl)cc54)c3)(CCC(=O)NCCOCCOCCOCCNS(=O)(=O)c3cccc([C@@H]4CN(C)Cc5c(Cl)cc(Cl)cc54)c3)NCc3ccc(-c4ccc(Cl)cc4)cc3)c2)C1` it was < 10000 nM.
Then `CN1Cc2c(Cl)cc(Cl)cc2[C@H](c2cccc(S(=O)(=O)NCCOCCOCCOCCNC(=O)CN(CCN(CC(=O)O)CC(=O)NCCOCCOCCOCCNS(=O)(=O)c3cccc([C@@H]4CN(C)Cc5c(Cl)cc(Cl)cc54)c3)CC(=O)O)c2)C1`, with 10 nM; and `C/C(=C\c1cc(F)c(Oc2ccc(S(=O)(=O)NCCOCCOCCOCCNC(=O)[C@H](O)[C@@H](O)C(=O)NCCOCCOCCOCCNS(=O)(=O)c3ccc(Oc4c(F)cc(/C=C(\C)C(=O)N=C(N)N)cc4F)cc3)cc2)c(F)c1)C(=O)N=C(N)N`, with 126 nM.
Turning to `O=C(NCCCCNC(=O)NCCOCCOCCNS(=O)(=O)c1ccc(O[C@H]2c3cc(Cl)cc(Cl)c3C[C@@H]2N2CCCCC2)cc1)NCCOCCOCCNS(=O)(=O)c1ccc(O[C@H]2c3cc(Cl)cc(Cl)c3C[C@@H]2N2CCCCC2)cc1`, the IC50 is < 10000 nM.
In the case of `CN(C)CC(=O)NCCOCCOCCNC(=O)NCCOCCOCCN1CCN(c2cccc(-c3nc(NC(=N)N)nc4ccc(Cl)cc34)c2)CC1` it was 39.8 nM.
In the case of `CN1Cc2c(Cl)cc(Cl)cc2[C@H](c2cccc(S(=O)(=O)NCCOCCOCCOCCn3cc(CN(Cc4cn(CCOCCOCCOCCNS(=O)(=O)c5cccc([C@@H]6CN(C)Cc7c(Cl)cc(Cl)cc76)c5)nn4)Cc4cnnn4CCOCCOCCOCCNS(=O)(=O)c4cccc([C@@H]5CN(C)Cc6c(Cl)cc(Cl)cc65)c4)nn3)c2)C1` it was 5010 nM; in that of `CN1Cc2c(Cl)cc(Cl)cc2[C@H](c2cccc(S(=O)(=O)NCCOCCOCCNC(=O)CCC(CCC(=O)NCCOCCOCCNS(=O)(=O)c3cccc([C@@H]4CN(C)Cc5c(Cl)cc(Cl)cc54)c3)(CCC(=O)NCCOCCOCCNS(=O)(=O)c3cccc([C@H]4c5cc(Cl)cc(Cl)c5CCN4C)c3)NC(=O)N[C@@H](CC(=O)O)C(=O)O)c2)C1`, 25.1 nM.
Turning to `CN(C)[C@H]1Cc2c(Cl)cc(Cl)cc2[C@@H]1Oc1ccc(S(=O)(=O)NCCOCCOCCNC(=O)CCC(C)(CCC(=O)NCCOCCOCCNS(=O)(=O)c2ccc(O[C@H]3c4cc(Cl)cc(Cl)c4C[C@@H]3N(C)C)cc2)NC(=O)CCC(=O)O)cc1`, the IC50 was 10 nM.
Then `COCCNS(=O)(=O)c1cccc(C2CN(C)Cc3c(Cl)cc(Cl)cc32)c1` (stereo unspecified), with 200 nM; and `CCOCCOCCOCCNC(=O)CN(C)CC(=O)NCCOCCOCCOCCNS(=O)(=O)c1ccc(O[C@H]2c3ccccc3C[C@@H]2N2CCCCC2)cc1`, with 44.7 nM.
For the molecule `O=C(NCCCCNC(=O)NCCOCCOCCNC(=O)Nc1cccc(O[C@H]2c3ccccc3C[C@@H]2N2CCCCC2)c1)NCCOCCOCCNC(=O)Nc1cccc(O[C@H]2c3ccccc3C[C@@H]2N2CCCCC2)c1`, the IC50 is < 10000 nM.
As to `CN1Cc2c(Cl)cc(Cl)cc2[C@H](c2cccc(S(=O)(=O)NCCOCCOCCOCCNC(=O)CN(CC(=O)NCCOCCOCCOCCNS(=O)(=O)c3cccc([C@@H]4CN(C)Cc5c(Cl)cc(Cl)cc54)c3)[C@@H]3CCCC[C@H]3N(CC(=O)NCCOCCOCCOCCNS(=O)(=O)c3cccc([C@@H]4CN(C)Cc5c(Cl)cc(Cl)cc54)c3)CC(=O)NCCOCCOCCOCNS(=O)(=O)c3cccc([C@@H]4CN(C)Cc5c(Cl)cc(Cl)cc54)c3)c2)C1`, the half-inhibitory concentration (IC50) is 316 nM.
As for `CCOCCN(CC(=O)NCCOCCOCCOCCNS(=O)(=O)c1cccc([C@@H]2CN(C)Cc3c(Cl)cc(Cl)cc32)c1)CC(=O)NCCOCCOCCOCCNS(=O)(=O)c1cccc([C@@H]2CCN(C)c3c(Cl)cc(Cl)cc32)c1`, the 50% inhibitory concentration (IC50) is 63.1 nM.
In the case of `O=C(NCCOCCOCCOCCNS(=O)(=O)c1ccc(O[C@H]2c3ccccc3C[C@@H]2N2CCCCC2)cc1)c1cccc(C(=O)NCCOCCOCCOCCNS(=O)(=O)c2ccc(O[C@H]3c4ccccc4C[C@@H]3N3CCCCC3)cc2)c1` it was 39.8 nM.
Take `C=CC(=O)NCCOCCOCCOCCNS(=O)(=O)c1cccc([C@@H]2CN(C)Cc3c(Cl)cc(Cl)cc32)c1`: the IC50 is 200 nM.
Take `COCCNC(=O)CN(C)CC(=O)NCCOCCOCCNC(=O)NCCOCCOCCOCCOc1cccc(-c2nc(NC(=N)N)nc3ccc(Cl)cc23)c1`: the half-inhibitory concentration (IC50) was 31.6 nM.
In the case of `N=C(N)Nc1nc(-c2ccc(N3CCN(CCOCCOCCOCCNC(=O)NCCOCCOCCNC(=O)NCCOCCOCCOCCN4CCN(c5ccc(-c6nc(NC(=N)N)nc7ccc(Cl)cc67)cc5)CC4)CC3)cc2)c2cc(Cl)ccc2n1` it was 50.1 nM; in that of `NCCOCCOCCOc1cccc(-c2nc(N=C(N)N)nc3ccc(Cl)cc23)c1`, 224 nM; in that of `CN(CC(=O)O)CC(=O)NC(CCC(=O)NCCOCCOCCNS(=O)(=O)c1cccc([C@@H]2CN(C)Cc3c(Cl)cc(Cl)cc32)c1)(CCC(=O)NCCOCCOCCNS(=O)(=O)c1cccc([C@@H]2CN(C)Cc3c(Cl)cc(Cl)cc32)c1)CCC(=O)NCCOCCOCCNS(=O)(=O)c1cccc([C@@H]2CN(C)Cc3c(Cl)cc(Cl)cc32)c1`, 50.1 nM.
For `CN1Cc2c(Cl)cc(Cl)cc2[C@H](c2cccc(NC(=O)[C@H](O)[C@@H](O)[C@H](O)[C@H](O)CO)c2)C1`, the IC50 is 25.1 nM.
Turning to `CN1Cc2c(Cl)cc(Cl)cc2[C@H](c2cccc(S(=O)(=O)NCCOCCOCCNC(=O)CCC(CCC(=O)NCCOCCOCCNS(=O)(=O)c3cccc([C@@H]4CN(C)Cc5c(Cl)cc(Cl)cc54)c3)(CCC(=O)NCCOCCOCCNS(=O)(=O)c3cccc([C@@H]4CN(C)Cc5c(Cl)cc(Cl)cc54)c3)NC(N)=O)c2)C1`, the IC50 was 316 nM.
Then `CN1Cc2c(Cl)cc(Cl)cc2[C@H](c2cccc(S(=O)(=O)NCCOCCOCCNC(=O)CCC(=O)NCCOCCOCCNS(=O)(=O)c3ccc(O[C@H]4c5ccccc5C[C@@H]4N4CCCCC4)cc3)c2)C1`, with 31.6 nM; and `CN(C)[C@H]1Cc2c(Cl)cc(Cl)cc2[C@@H]1Oc1ccc(S(=O)(=O)NCCOCCOCCNC(=O)CCC(=O)NCCOCCOCCNS(=O)(=O)c2ccc(O[C@H]3c4cc(Cl)cc(Cl)c4C[C@@H]3N(C)C)cc2)cc1`, with 3.98 nM; and `O=C(NCCOCCOCCNS(=O)(=O)c1ccc(O[C@H]2c3ccccc3C[C@@H]2N2CCCCC2)cc1)[C@H](O)[C@@H](O)C(=O)NCCOCCOCCNS(=O)(=O)c1ccc(O[C@H]2c3ccccc3C[C@@H]2N2CCCCC2)cc1`, with 3.98 nM.
Then `CN(C)[C@H]1Cc2c(Cl)cc(Cl)cc2[C@@H]1Oc1ccc(S(=O)(=O)NCCOCCOCCNC(=O)CCC(C)(N)CCC(=O)NCCOCCOCCNS(=O)(=O)c2ccc(O[C@H]3c4cc(Cl)cc(Cl)c4C[C@@H]3N(C)C)cc2)cc1`, with 2.51 nM; and `C/C(=C\c1cc(F)c(Oc2ccc(S(=O)(=O)NCCOCCOCCOCCNC(=O)NCCCCNC(=O)NCCOCCOCCOCCNS(=O)(=O)c3ccc(Oc4c(F)cc(/C=C(\C)C(=O)N=C(N)N)cc4F)cc3)cc2)c(F)c1)C(=O)N=C(N)N`, with 31.6 nM; and `CN1Cc2c(Cl)cc(Cl)cc2[C@H](c2cccc(S(=O)(=O)NCCOCCOCCNC(=O)CCC(CCC(=O)NCCOCCOCCNS(=O)(=O)c3cccc([C@@H]4CN(C)Cc5c(Cl)cc(Cl)cc54)c3)(CCC(=O)NCCOCCOCCNS(=O)(=O)c3cccc([C@@H]4CN(C)Cc5c(Cl)cc(Cl)cc54)c3)NC(=O)NC[C@H](O)[C@@H](O)[C@H](O)[C@H](O)CO)c2)C1`, with 56.2 nM.
